Assay results taken from article PMC12030426, “Translational Pharmacokinetic-Pharmacodynamic Modeling of a Novel Oral Dihydroorotate Dehydrogenase (DHODH) Inhibitor, HOSU-53 (JBZ-001)” (Pharmaceutics, 2025).
Entries after “also recorded” stand apart in the source; their conditions may differ.

Key:
[1] = noncompartmental PK in mice; assay type: in vivo
[2] = noncompartmental PK in rats; assay type: in vivo
Description: (§1) Non-clinical PK of HOSU-53 has been studied and analyzed after single and multiple doses with noncompartmental analysis (NCA). […] F was similar between the two species, with mean values of approximately 60% and 50% in rats and dogs, respectively.

[3] = noncompartmental PK in dogs; assay type: in vivo
Description: as §1

plasma DHO [4] = experiment: correlation of plasma DHO exposure with efficacy, tolerability and toxicity in repeat dose studies; assay type: in vivo, rats, dogs, and tumor-bearing mice; details: based on preclinical experiments
Procedure: These GI toxicities are consistent with the high proliferative demand of intestinal epithelial cells, which rely on pyrimidine availability for DNA synthesis and repair. The No Observed Adverse Effect Levels (NOAELs) from the rat and dog GLP toxicity studies were then determined to be one dose level lower, which are 2.5 mg/kg (PO, QD) and 0.6 mg/kg (PO, QD), respectively. Based on repeat dose studies in rats, dogs, and tumor-bearing mice, efficacy, tolerability, and toxicity can be correlated with levels of the PD biomarker DHO in plasma.

population PK model, dog = assay type: in vivo
Procedure: (§2) Population PK analyses were performed using nonlinear mixed-effects modeling implemented in Monolix software (Monolix Suite 2024R1, Antony, France). This approach utilizes the stochastic approximation of the expectation-maximization (SAEM) algorithm coupled with a Markov chain Monte Carlo (MCMC) method to optimize the likelihood. One- and two-compartment PK models incorporating zero- and first-order absorption with linear elimination were evaluated. Interindividual variability (IIV) in PK parameters was assumed to follow a log-normal distribution, except for bioavailability (F), which was modeled using a logit-normal distribution. An exponential model was applied, as described by the following equation: θi=θp×e^ηi where θi is the model predicted PK parameter for the ith animal, θp is the typical population PK parameter, and ηi is the random variable of normal distribution with mean zero and variance ω^2 .
(§3) Residual or random unexplained variability was evaluated using additive, proportional, and combined error models. For each model, several criteria were assessed, including the objective function value (OFV), Akaike Information Criterion (AIC), Bayesian Information Criterion (BIC), corrected Bayesian Information Criterion (BICc), and the precision of parameter estimates, expressed as residual standard errors.
During the development of the PK model for dogs, a two-compartment model was first constructed using IV data alone. […] This approach provided reasonable estimates for F and Ka, with acceptable RSE values (Table 3). […] The GOF plots for the final PK models of dog and mouse are presented in Figure 1 and Supplementary Figure S1, respectively.

plasma DHO [5] = experiment: population PD model (indirect turnover, plasma DHO), dog; assay type: in vivo
Procedure: (§4) To develop the PK/PD models, a sequential approach was tested for dog data, involving the initial construction of the PK model, fixing the PK parameters with population estimated thetas and eta variances, and then estimating the PD parameters. For mouse and rat data, a simultaneous approach was employed, estimating PK and PD parameters concurrently, assuming log-normal distribution for both. To account for the delay in PD response that results from the inhibition of DHODH, the factor controlling the dissipation of the response, various modeling approaches were employed. One approach involved using an effect compartment model with an equilibrium half-life parameter ( ke0 ) to characterize the delay,
(§5) The final PK/PD model for both species was an indirect turnover model with degradation inhibition. The parameters for the final dog and mouse PK/PD models are presented in Table 3 and Supplementary Table S3, respectively.

[6] = population PK model, mouse; assay type: in vivo
Procedure: as §2, §3
The final structural PK models for both mouse and dog data were two-compartment disposition models with first-order absorption and linear elimination. We ultimately chose to exclude rat data from the population modeling effort, as described below in this section. The parameters for the final dog and mouse PK models are presented in Table 3 and Supplementary Table S3, respectively. All parameters were estimated with good precision, as indicated by the %RSE of the estimates. Proportional and combined error models were selected for the mouse and dog data, respectively.

plasma DHO [7] = experiment: population PD model (indirect turnover, plasma DHO), mouse; assay type: in vivo
Procedure: as §4, §5

pKa = assay type: physicochemical; details: experimental data
Procedure: (§6) PBPK models were developed using PK-Sim v11.0 in rats and beagle dogs, and each was used to predict data in the other species, including mice. A base model was parameterized using lipophilicity, plasma protein binding, thermodynamic solubility, and pKa measured from in vitro studies. Half-life of HOSU-53 measured in beagle cryo-preserved hepatocytes was used along with hepatocyte incubation density within the In Vitro to In Vivo Extrapolation (IVIVE) tools in PK-Sim to estimate metabolic clearance in vivo [25]. Renal clearance of unbound plasma HOSU-53 was assumed to be driven solely by glomerular filtration rate (GFR). Various methods were used to calculate partition coefficients and cellular permeabilities in PK-Sim. PK predictions generated for each combination of calculation methods were compared to the mean observed IV profile, and the methods that best matched the observed data were selected. Ultimately, partition coefficients were calculated using the Rodgers and Rowland method, and cellular permeabilities were calculated using the charge-dependent Schmitt method. PK following oral administration of HOSU-53 was used to identify parameter values for intestinal permeability for the sodium and lysine salt forms administered in deionized (DI) water. […]

thermodynamic solubility = assay type: physicochemical; details: pH 6.5; experimental data
Procedure: as §6

[8] = in vitro hepatic stability assay scaled by IVIVE, rat; assay type: in vitro ADME; details: scaled from in vitro hepatic stability assay
Procedure: as §6

human DHODH = human DHODH (Homo sapiens, UniProt Q02127); set-up: method as in PMID 38646934; details: cell-free; read-out: IC50 in cell-free human DHODH inhibition assay; cited from earlier work
PXR = system: PXR; set-up: method as in PMID 38646934; details: cited from earlier work
hERG ion channel = system: hERG ion channel; set-up: method as in PMID 38646934; details: cited from earlier work
[9] = set-up: method as in PMID 38646934; details: cited from earlier work
[10] = set-up: method as in PMID 38646934; details: cited from earlier work; remark: listed apart in the source
[11] = system: MOLM-13 cell line–derived xenograft; set-up: method as in PMID 38646934; details: combined with other front-line therapies; cited from earlier work
PPARγ = details: cited from earlier work
[12] = 28-day GLP repeat-dose toxicity study in rats
Procedure: A series of PK and PD studies was carried out using a range of single and repeat dosing regimens in rats, exploring variations in formulation and dosing schedules. The initial experiment evaluated the PK/PD profile following a single dose of 10 mg/kg PO and 3 mg/kg IV using 40% HPBCD. Building on the single-dose results, repeat dosing was investigated at 1 (both sexes), 3 (both sexes), 6 (females), and 10 (males) mg/kg (PO, QD) and 30 (both sexes) mg/kg (PO, BIWK) regimen in 40% HPBCD formulation. To extend the findings into a disease-relevant context, repeat dosing was evaluated for 14 days in a MOLM-13 xenograft model in the Sprague Dawley Rag2−/− Il2rg−/− (SRG) male rats, where doses of 1, 3, and 10 mg/kg (PO, QD) were administered, alongside 30 mg/kg biweekly (PO, BIWK).

[13] = 28-day GLP repeat-dose toxicity study in dogs
Procedure: The PK/PD characterization of HOSU-53 in beagle dogs was conducted across several studies. An initial single-dose PK/PD evaluation was carried out with male dogs receiving HOSU-53 (10 mg/kg, PO; 3 mg/kg, IV) in 40% HPBCD. Then, repeat-dose PK/PD over 7 days was assessed in male and female dogs with doses of 0.3, 1, and 3 mg/kg (PO, QD) in deionized water. […] Additional GLP toxicokinetic and toxicodynamic evaluations were performed, where dogs were dosed at 0.2, 0.6, and 1 mg/kg (PO, QD) for 28 days followed by a 14-day recovery period (Details in Supplementary Table S1).

human DHODH, sequence (Q02127 whole entry): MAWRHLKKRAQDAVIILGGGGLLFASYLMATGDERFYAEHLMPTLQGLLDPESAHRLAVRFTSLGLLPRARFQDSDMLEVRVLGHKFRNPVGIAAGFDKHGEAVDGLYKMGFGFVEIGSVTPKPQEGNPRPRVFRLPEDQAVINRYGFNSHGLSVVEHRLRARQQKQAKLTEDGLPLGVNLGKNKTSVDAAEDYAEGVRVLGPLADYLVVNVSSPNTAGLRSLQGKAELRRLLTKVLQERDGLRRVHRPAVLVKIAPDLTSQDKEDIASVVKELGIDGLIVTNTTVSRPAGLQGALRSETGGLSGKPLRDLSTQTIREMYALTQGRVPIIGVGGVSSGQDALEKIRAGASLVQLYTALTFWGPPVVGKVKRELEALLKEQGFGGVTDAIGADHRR

CCCCOc1cccc(-c2ccc(-c3cc(C(=O)O)c4cc(F)ccc4n3)cc2)c1 [HOSU-53]
mean T1/2 ([1]; NCA): 30 h
dose proportionality of plasma levels ([1]; repeated oral dosing, higher doses, dose range 4–30 mg/kg): less-than-dose-proportional manner
F ([1]; single IV 3 mg/kg and oral 10 mg/kg, NCA): 86%
F ([2]; mean, NCA): approximately 60%
dose proportionality of plasma levels ([2]; repeated oral dosing, higher doses, dose range 3–10 mg/kg): less-than-dose-proportional manner
F ([3]; mean, NCA): ~50%
dose proportionality of plasma levels ([3]; repeated oral dosing, dose range 0.3–3 mg/kg): dose-proportional manner
AUCtau,ss of DHO at which optimal efficacy is expected (plasma DHO [4]): around 300 µM·h
F (%) (population PK model, dog; bootstrap point estimate): 0.67 fraction
Ka (population PK model, dog; bootstrap point estimate): 1.55 h⁻¹
F (%) (population PK model, dog; model estimate (RSE%)): 0.67 (2.8) %
Ka (population PK model, dog; model estimate (RSE%)): 1.53 (12.6) /h
CL/F (population PK model, dog; model estimate, fixed): 150 Fix mL/h
Q (population PK model, dog; model estimate, fixed): 400 Fix mL/h
V1 (population PK model, dog; model estimate, fixed): 980 Fix mL
V2 (population PK model, dog; model estimate, fixed): 490 Fix mL
IC50 (plasma DHO [5]; bootstrap point estimate): 80 nM
Kout (plasma DHO [5]; bootstrap point estimate): 70 h⁻¹
gamma (plasma DHO [5]; bootstrap point estimate): 1.86
Kout (plasma DHO [5]; model estimate (RSE%)): 52 (11.4) /h
gamma (plasma DHO [5]; model estimate (RSE%)): 1.9 (1.6)
IC50 (plasma DHO [5]; plasma HOSU-53 concentration, inhibition of DHO degradation, model estimate (RSE%)): 100 nM
CL/F ([6]; bootstrap point estimate): 0.07 mL/h
F (%) ([6]; bootstrap point estimate): 54%
Ka ([6]; bootstrap point estimate): 1.2 h⁻¹
Q ([6]; bootstrap point estimate): 1.6 mL/h
V1 ([6]; bootstrap point estimate): 1.3 mL
V2 ([6]; bootstrap point estimate): 1.1 mL
CL/F ([6]; model estimate (RSE %)): 0.07 (5.0) mL/h
F (%) ([6]; model estimate (RSE %)): 0.53 (0.02) %
Ka ([6]; model estimate (RSE %)): 1.0 (0.02) /h
Q ([6]; model estimate (RSE %)): 1.6 (1.7) mL/h
V1 ([6]; model estimate (RSE %)): 1.2 (8.7) mL
V2 ([6]; model estimate (RSE %)): 1.2 (5.3) mL
IC50 (plasma DHO [7]; bootstrap point estimate): 1610 nM
Kout (plasma DHO [7]; bootstrap point estimate): 127 h⁻¹
gamma (plasma DHO [7]; bootstrap point estimate): 1.63
Kout (plasma DHO [7]; model estimate (RSE %)): 155 (12.7) /h
gamma (plasma DHO [7]; model estimate (RSE %)): 1.71 (0.1)
IC50 (plasma DHO [7]; plasma HOSU-53 concentration, inhibition of DHO degradation, model estimate (RSE %)): 1550 nM
pKa (Acid) (pKa): 3.05 (Acid)
pKa (Base) (pKa): 1.19 (Base)
Solubility (thermodynamic solubility): 18.8 μg/mL (pH 6.5)
Specific Clearance [8]: 7.29 min⁻¹
IC50 (human DHODH): 0.95 nM
PXR induction (PXR): does not induce PXR
hERG ion channel inhibition (hERG ion channel): does not induce PXR or inhibit the hERG ion channel
Ames mutagenicity [9]: negative
micronucleus assay [10]: negative
survival [11]: prolonged survival benefits
PPARγ agonism potency, fold less than potency against MOLM-13 AML cells in cell viability assays (PPARγ): 1500 ×
adverse effects ([12]; male and female rats, 5 mg/kg PO, QD): decreased lymphoid cellularity in the thymus, mild-to-moderate decreases in lymphocyte counts, and lower thymus weights
HNSTD or STD10 ([12]; rats): 5 mg/kg/day
NOAEL ([12]; rats, PO, QD, 28-day GLP): 2.5 mg/kg
maximum DHO concentration with no toxicity ([12]; rats, preclinical toxicokinetic data): ~ 2870 ng/mL
human equivalent dose (HED) ([12]; scaled by body surface area from rats (divided by 6.2)): 0.8 mg/kg/day
survival ([13]; all dogs, 28-day GLP study): survived until scheduled euthanasia
HNSTD or STD10 ([13]; dogs): 0.6 mg/kg/day
NOAEL ([13]; dogs, PO, QD, 28-day GLP): 0.6 mg/kg
maximum DHO concentration with no toxicity ([13]; dogs, preclinical toxicokinetic data): ~ 5850 ng/mL
heart rate and RR interval ([13]; female dogs, 1 mg/kg PO, QD, 1–2 h postdosing, weeks 1 and 4): lower heart rate and longer RR interval duration
adverse effects ([13]; male and female dogs, 1 mg/kg PO, QD, 1 mg/kg): decreased food consumption, lower body weights, and adverse intestinal microscopic findings related to mucosal epithelial cell loss; also recorded: decreased food consumption, lower body weights, and adverse intestinal (colon, ileum, and/or jejunum) microscopic findings related to mucosal epithelial cell loss
human equivalent dose (HED) ([13]; scaled by body surface area from dogs (divided by 1.8)): 0.3 mg/kg/day
